The numbers were not newly measured in patent EP1219295A1, “Controlled release formulation of valproate” (Abbott Laboratories, priority 2000, dated 2002), which cites them from elsewhere.

For series [1] the following is noted: in vivo.

Read-outs that look alike come from different tables or passages of the source.

For `CCCC(CCC)C(=O)O` [valproate], in series [1], the “patients affected by GI irritation” value is listed as “up to one third”. Regarding `CCCC(CCC)C(=O)O` [valproic acid, 2-Propylpentanoic acid], the half life entry is “six and seventeen” (in adults); “four and fourteen” (in children).
